Assay results reported in patent US20260248879A1, “METHODS OF USING A GCG/GLP1 CO-AGONIST FOR THERAPY” (ELI LILLY AND COMPANY, priority 2022, published 2026).

Test system: patients with T2DM
Experiment: Example 1 study: fasting pharmacodynamic markers (glucose, insulin, C-peptide, glucagon, lipids, HOMA indices)
Type: in vivo, human
Conditions: for mean HOMA-B index: baseline 9.108
Description: Fasting plasma samples for glucose and insulin are explored as secondary PD markers. Exploratory PD may include, but are not limited to plasma glucagon, C-peptide, native OXM, lipid panel (triglycerides, total cholesterol, low-density lipoprotein cholesterol, and high-density lipoprotein cholesterol), beta cell function, and homeostatic model assessment (HOMA) indices.
Plasma concentrations of at least glucose, glucagon, insulin, C-peptide and native OXM, are assayed using validated analytical methods.
In respect of Cohort 1, PD sampling occurs at baseline and Days 1, 3 (48 hours post administration of Compound 1), 8, 22, 29, 50, 57, 78 and 80. […]

[1] = Cohort 1, escalated to 4.5 mg, Day 78 and Day 80
[2] = Cohort 1, escalated to 4.5 mg, Day 80
[3] = Cohort 2, escalated to 6.0 mg, Day 64
[4] = Cohort 2, escalated to 8.0 mg, Day 85
[5] = Cohort 2, escalated to 10.0 mg, Day 106 and Day 108
[6] = Cohort 2, escalated to 10.0 mg, Day 108

## CC(C)C[C@H](NC(=O)[C@H](CC(C)C)NC(=O)[C@H](Cc1c[nH]c2ccccc12)NC(=O)[C@H](CCC(=O)O)NC(=O)[C@@H](NC(=O)[C@H](Cc1ccccc1)NC(=O)[C@H](CCC(=O)O)NC(=O)[C@H](CCCCNC(=O)COCCOCCNC(=O)COCCOCCNC(=O)CC[C@H](NC(=O)CCCCCCCCCCCCCCCCCCC(=O)O)C(=O)O)NC(=O)[C@H](C)NC(=O)[C@H](CCCCN)NC(=O)[C@H](CCCCN)NC(=O)[C@H](CCC(=O)O)NC(=O)[C@H](CC(=O)O)NC(=O)[C@H](CC(C)C)NC(=O)[C@H](Cc1ccc(O)cc1)NC(=O)[C@H](CCCCN)NC(=O)[C@H](CO)NC(=O)[C@H](Cc1ccc(O)cc1)NC(=O)[C@H](CC(=O)O)NC(=O)[C@H](CO)NC(=O)[C@@H](NC(=O)[C@H](Cc1ccccc1)NC(=O)[C@@H](NC(=O)CNC(=O)[C@H](CCC(N)=O)NC(=O)C(C)(C)NC(=O)[C@@H](N)Cc1c[nH]cn1)[C@@H](C)O)[C@@H](C)O)C(C)C)C(=O)N[C@@H](CCC(=O)O)C(=O)NCC(=O)NCC(=O)N1CCC[C@H]1C(=O)N[C@@H](CO)C(=O)N[C@@H](CO)C(=O)NCC(N)=O [Compound 1]
Cohort 1, escalated to 4.5 mg, Day 78, baseline 14.79 pmol/L
  mean fasting glucagon: 6.65 pmol/L
Cohort 1, escalated to 4.5 mg, Day 78, baseline 667 pmol/L
  mean fasting C-peptide: 820 pmol/L
Cohort 1, escalated to 4.5 mg, Day 78, baseline 2.938
  mean fasting triglyceride: 1.456 mmol/L
Cohort 1, escalated to 4.5 mg, Day 78, baseline 4.704
  mean HOMA-IR index: 4.289
Cohort 1, escalated to 4.5 mg, Day 78, baseline 5.065
  mean fasting total cholesterol: 4.275 mmol/L
Cohort 1, escalated to 4.5 mg, Day 78, baseline 9.648
  mean fasting insulin: 13.362 mIU/L
[1]
  approximate decrease of HOMA-IR from baseline: ~9%
  approximate decrease of fasting LDL cholesterol from baseline: ~10%
  approximate decrease of fasting glucagon from baseline: 45-55%
  approximate decrease of fasting total cholesterol from baseline: 12-16%
  approximate decrease of fasting triglyceride from baseline: 29-50%
  approximate increase of fasting C-peptide from baseline: 22-31%
  approximate increase of fasting insulin from baseline: 38-46%
Cohort 1, escalated to 4.5 mg, Day 78 and Day 80, baseline 2.852
  mean fasting LDL cholesterol: 2.56 mmol/L
[2]
  approximate increase of HOMA-B from baseline: ~145%
  approximate reduction of mean fasting glucose from baseline: ~40%
Cohort 1, escalated to 4.5 mg, Day 80, baseline 14.79 pmol/L
  mean fasting glucagon: 8.19 pmol/L
Cohort 1, escalated to 4.5 mg, Day 80, baseline 667 pmol/L
  mean fasting C-peptide: 875 pmol/L
Cohort 1, escalated to 4.5 mg, Day 80, baseline 2.938
  mean fasting triglyceride: 2.084 mmol/L
Cohort 1, escalated to 4.5 mg, Day 80, baseline 5.065
  mean fasting total cholesterol: 4.461 mmol/L
Cohort 1, escalated to 4.5 mg, Day 80, baseline 9.648
  mean fasting insulin: 14.046 mIU/L
Cohort 1, escalated to 4.5 mg, Day 80, baseline 10.78
  mean fasting glucose: 6.52 mmol/L
Cohort 2, escalated to 6.0 mg
  approximate decrease of fasting glucagon from baseline: ~63%
  approximate increase of fasting C-peptide from baseline: ~12%
  approximate increase of fasting insulin from baseline: ~14%
[3]
  approximate decrease of HOMA-IR from baseline: ~20%
  approximate decrease of fasting LDL cholesterol from baseline: ~29%
  approximate decrease of fasting total cholesterol from baseline: ~26%
  approximate decrease of fasting triglyceride from baseline: ~43%
  approximate increase of HOMA-B from baseline: ~76%
  mean HOMA-B index: 16.072
Cohort 2, escalated to 6.0 mg, Day 64, baseline 1.867
  mean fasting triglyceride: 1.055 mmol/L
Cohort 2, escalated to 6.0 mg, Day 64, baseline 2.7
  mean HOMA-IR index: 2.158
Cohort 2, escalated to 6.0 mg, Day 64, baseline 2.796
  mean fasting LDL cholesterol: 1.997 mmol/L
Cohort 2, escalated to 6.0 mg, Day 64, baseline 4.971
  mean fasting total cholesterol: 3.673 mmol/L
Cohort 2, escalated to 6.0 mg, baseline 5.892
  mean fasting insulin: 6.73 mIU/L
Cohort 2, escalated to 6.0 mg, baseline 9.83
  mean fasting glucagon: 3.65 pmol/L
Cohort 2, escalated to 6.0 mg, baseline 532.8
  mean fasting C-peptide: 597 pmol/L
Cohort 2, escalated to 8.0 mg
  approximate increase of fasting C-peptide from baseline: approximately 2%
  approximate increase of fasting insulin from baseline: ~12%
Cohort 2, escalated to 8.0 mg, Day 80 (so in the source), baseline 9.83
  mean fasting glucagon: 2 pmol/L
[4]
  approximate decrease of HOMA-IR from baseline: approximately 27%
  approximate decrease of fasting LDL cholesterol from baseline: approximately 30%
  approximate decrease of fasting total cholesterol from baseline: approximately 27%
  approximate decrease of fasting triglyceride from baseline: approximately 54%
  approximate increase of HOMA-B from baseline: approximately 83%
  mean HOMA-B index: 16.689
Cohort 2, escalated to 8.0 mg, Day 85, baseline 1.867
  mean fasting triglyceride: 0.855 mmol/L
Cohort 2, escalated to 8.0 mg, Day 85, baseline 2.7
  mean HOMA-IR index: 1.976
Cohort 2, escalated to 8.0 mg, Day 85, baseline 2.796
  mean fasting LDL cholesterol: 1.954 mmol/L
Cohort 2, escalated to 8.0 mg, Day 85, baseline 4.971
  mean fasting total cholesterol: 3.614 mmol/L
Cohort 2, escalated to 8.0 mg, baseline 5.892
  mean fasting insulin: 6.589 mIU/L
Cohort 2, escalated to 8.0 mg, baseline 532.8
  mean fasting C-peptide: 542 pmol/L
Cohort 2, escalated to 10.0 mg
  approximate decrease of fasting C-peptide from baseline: ~18%
  approximate decrease of fasting insulin from baseline: ~20%
  approximate decrease of fasting total cholesterol from baseline: ~31%
Cohort 2, escalated to 10.0 mg, Day 106, baseline 1.867
  mean fasting triglyceride: 0.86 mmol/L
Cohort 2, escalated to 10.0 mg, Day 106, baseline 2.796
  mean fasting LDL cholesterol: 1.859 mmol/L
Cohort 2, escalated to 10.0 mg, Day 106, baseline 4.971
  mean fasting total cholesterol: 3.454 mmol/L
Cohort 2, escalated to 10.0 mg, Day 106, baseline 5.892
  mean fasting insulin: 5.355 mIU/L
Cohort 2, escalated to 10.0 mg, Day 106, baseline 9.83
  mean fasting glucagon: 1.98 pmol/L
Cohort 2, escalated to 10.0 mg, Day 106, baseline 532.8
  mean fasting C-peptide: 511 pmol/L
[5]
  approximate decrease of fasting LDL cholesterol from baseline: 33-34%
  approximate decrease of fasting triglyceride from baseline: 47-54%
[6]
  approximate decrease of HOMA-IR from baseline: ~51%
  approximate increase of HOMA-B from baseline: ~33%
  approximate reduction of mean fasting glucose from baseline: ~43%
Cohort 2, escalated to 10.0 mg, Day 108, baseline 1.867
  mean fasting triglyceride: 0.985 mmol/L
Cohort 2, escalated to 10.0 mg, Day 108, baseline 2.796
  mean fasting LDL cholesterol: 1.849 mmol/L
Cohort 2, escalated to 10.0 mg, Day 108, baseline 4.971
  mean fasting total cholesterol: 3.441 mmol/L
Cohort 2, escalated to 10.0 mg, Day 108, baseline 5.892
  mean fasting insulin: 4.74 mIU/L
Cohort 2, escalated to 10.0 mg, Day 108, baseline 9.83
  mean fasting glucagon: 1.93 pmol/L
Cohort 2, escalated to 10.0 mg, Day 108, baseline 10.46
  mean fasting glucose: 5.91 mmol/L
Cohort 2, escalated to 10.0 mg, Day 108, baseline 532.8
  mean fasting C-peptide: 435 pmol/L
Cohort 2, over the dosing period (FIG. 7c)
  mean fasting HDL levels: decreased from baseline
Dose 8.0 mg or higher
  reduction of fasting LDL cholesterol: ≥ 30%
Dose 10 mg or greater
  reduction of fasting insulin resistance indices: 50%
Dose greater than 6.0 mg
  reduction of fasting insulin resistance indices: greater than 25%
  reduction of fasting plasma glucagon: approximately 80%
  reduction of fasting triglyceride: ≥ 50%
Dose greater than 8.0 mg
  reduction of fasting total cholesterol: more than 30%
